Assay results as given in patent US9120762B2, “Salts of bicyclo-substituted pyrazolon azo derivatives, preparation method and use thereof” (Jiangsu Hengrui Medicine Co., Ltd., priority 2009, dated 2015).
Converted amounts (≈) assume the structure as drawn. Like-named read-outs stand apart in the source and are kept apart here.

What was measured:
[1] = target: T1, human TPOR (Homo sapiens, UniProt P40238); experiment: Proliferation effect on BAF3-TPOR cell (CCK-8); format: cell-based; details: rate relative to rhTPO positive control
T1 construct: host or cells: BaF3 (murine pro-B cells), stably transfected, G418-selected
T1 sequence (P40238 26-635): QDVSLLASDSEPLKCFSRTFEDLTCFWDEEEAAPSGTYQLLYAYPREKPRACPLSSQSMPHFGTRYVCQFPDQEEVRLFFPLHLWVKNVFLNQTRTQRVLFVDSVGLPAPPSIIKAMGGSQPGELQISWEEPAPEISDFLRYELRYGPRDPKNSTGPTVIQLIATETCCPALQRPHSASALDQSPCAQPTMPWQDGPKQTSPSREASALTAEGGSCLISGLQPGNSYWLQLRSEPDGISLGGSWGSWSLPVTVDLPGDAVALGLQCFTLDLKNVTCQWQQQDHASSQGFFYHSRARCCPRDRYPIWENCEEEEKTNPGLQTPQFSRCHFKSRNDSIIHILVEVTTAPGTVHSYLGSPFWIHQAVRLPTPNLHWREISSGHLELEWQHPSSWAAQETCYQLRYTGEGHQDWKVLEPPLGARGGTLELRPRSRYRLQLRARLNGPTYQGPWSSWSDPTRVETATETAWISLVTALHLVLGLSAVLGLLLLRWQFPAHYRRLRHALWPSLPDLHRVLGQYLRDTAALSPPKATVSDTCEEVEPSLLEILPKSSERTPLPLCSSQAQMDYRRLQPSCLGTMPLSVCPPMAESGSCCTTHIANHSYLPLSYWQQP
Description: (1) Plasmid constructs: based on the TPO receptor (TPOR) sequence information from Entrez (Gene ID: 4325, Refseq: NM_005373), dual-site mutation was performed on EX-B0010-M02 plasmid by using QuikChange® Multi Site Directed Mutagenesis Kit (Stratagene). The sequence of primers containing multi-sites mutation was designed as follows: […]
The E. coli DH5α competent cells were transformed with mutated plasmid, and positive colonies were picked up through ampicillin selection. The mutation result was confirmed by sequence analysis.
(2) BAF3-TPOR stable transfected cell line: the following method was used to construct the BaF3 cell which stably over-expressed functional human TPOR. The successfully mutated EX-B0010-M02 plasmid ([…]) which expressed human TPOR and screening gene neomycin was transfected into wild-type BaF3 cells (1×10^7) by electroporation at 250V for 18 ms using an electric pulse generator (Electro Square Porator ECM830, BTX Division of Genetronic, Inc. US). The stable transfected cells BAF3-TPOR were selected with G418 (Gibco, US), then incubated in RPMI1640 medium plus 10% FBS (Gibco, US), […] G418, 5 ng/mL, rmIL-3 (Chemicon, US).
(1) Washing cells by centrifugation: a suitable amount of cell suspension was centrifuged at 1000 rpm for 5 minutes, and the supernatant was discarded. 10 mL of cell culture media without IL-3 was added. Then the resulting cell suspension was centrifuged at 1000 rpm for 5 minutes, and the supernatant was discarded.
(2) 1 mL of cell culture media without IL-3 was added to beat upon them to equality, and the number of a suitable amount of cell suspension was counted after dilution.
(3) According to the result of the cell counting, a cell suspension in a concentration of 100,000 cell/mL was prepared.
(4) 100 μL of cell suspension was transferred to each well of 96-well culture plate, and there were 3 parallel wells, that is, there were a blank control group (B), a negative control group (N), a positive control group of TPO (P) and a test compound group (S).
(5) The test compound was dissolved in DMSO to prepare a 10 mM stock solution, and then the solution was diluted with RPMI 1640 medium into a series of test samples at different concentration: 30 μM, 10 μM, 3 μM, 1 μM, 0.3 μM, 0.1 μM, 0.03 μM, 0.01 μM, 0.003 μM, 0.001 μM.
(6) 10 μL of test compound solution was transferred to each well respectively; 1 μL of rhTPO (10 ng/mL) was added to positive control well.
(7) The plates were incubated in an incubator at 5% CO2 and 37° C. for 24 hours.
(8) After incubation, 10 μL of CCK-8 solution was added to each well and the plates were incubated in the incubator for another 24 hours.
(9) OD value was detected at 450 nm by VICTORS (Perkin Elmer 1420-120) plate reader.
(1) The proliferation rate was calculated as follows: Rate=[(S−B)/(P−B)]*100%
S: OD value of wells which contain test compound.
B: OD value of blank control wells
P: OD value of positive control wells
(2) The EC50 value was calculated by Origin 7.0 software.

[2] = Solubility assay in water, 0.1% hydrochloric acid and methanol; format: physicochemical
Description: The solubility was characterized by:
The term “very soluble” refers to that 1 g (mL) of solute can be dissolved in less than 1 mL of solvent;
The term “freely soluble” refers to that 1 g (mL) of solute can be dissolved in from 1 mL to 10 mL, not including 10 mL of solvent;
The term “soluble” refers to that 1 g (mL) of solute can be dissolved in from 10 mL to 30 mL, not including 30 mL of solvent;
The term “sparingly soluble” refers to that 1g (mL) of solute can be dissolved in from 30 mL to 100 mL, not including 100 mL of solvent;
The term “slightly soluble” refers to that 1g (mL) of solute can be dissolved in from 100 mL to 1000 mL, not including 1000 mL of solvent;
The term “very slightly soluble” refers to that 1g (mL) of solute can be dissolved in from 1000 mL to 10000 mL, not including 10000 mL of solvent;
The term “practically insoluble or insoluble” refers to that 1g (mL) of solute cannot be dissolved completely in 10000 mL of solvent.

[3] = Pharmacokinetics assay in rats; format: in vivo, SD rats; details: 50 mg/kg, SD rats, intragastric, 50 mg/Kg (as free acid); for Vd/F / AUC / CL/F / half-life / MRT / Cmax / Tmax: both sexes, SD, rat, plasma, po; for Vd/F: read-out: Apparent Distribution Volume Vz/F; for AUC: read-out: Area Under Curve AUC; for CL/F: read-out: Clearance CL/F (converted); for half-life: read-out: Half-Life t½ (converted); for MRT: read-out: Mean Residence Time MRT; for Cmax: read-out: Plasma Conc. Cmax; for Tmax: read-out: Time to peak Tmax
Description: The compounds of the present disclosure were administrated intragastrically to rats to determine the drug concentration in plasma at different time points by HPLC-UV. The pharmacokinetic behavior of the compounds of the present disclosure was studied and evaluated in rats. […] Healthy adult SD rats, male and female in half, were purchased from SINO-BRITSH SIPPR/BK LAB.ANIMAL LTD., Colo., License number: SCXK (Shanghai) 2003-0002 The test compound was diluted with 1% sodium carboxymethyl cellulose to 5 mg/mL (calculated as the free acid form) of suspension before use. Healthy adult SD rats, male and female in half, were divided into 23 groups. […] The plasma samples were stored at −20° C. until analysis. The rats were fed 2 hours after administration. […] Then the mixture was mixed for 3 minute using a vortexer and centrifuged for 10 minutes at 13,500 rpm. 40 μL of the supernatant was analyzed by HPLC-UV. The compartmental model of pharmacokinetics was fitted for the test compounds and the major pharmacokinetic parameters were calculated in which Cmax and tmax were the actually measured values.

[4] = 0.1% hydrochloric acid, simulated gastric fluid, 0.1% hydrochloric acid, read-out: solubility
[5] = methanol, organic solvent or mixture, methanol, read-out: solubility

EC50 [1] [nM] | solubility ([2]; water, read-out: solubility) [µg/mL] | Vd/F [3] [L/kg] | AUC [3] [µg·h/mL] | CL/F [3] [mL/min/kg] | half-life [3] [h] | MRT [3] [h] | Cmax [3] [ng/mL] | Tmax [3] [h] | solubility ([2]; methanol) [µg/mL] | Area Under Curve AUC [3] [µg·h/mL] | Clearance CL/F [3] [mL/min/kg] | Half-Life t½ [3] [h] | Mean Residence Time MRT [3] [h] | Plasma Conc. Cmax [3] [ng/mL] | solubility ([2]; 0.1% hydrochloric acid) [µg/mL] | Structure (SMILES) | solubility [2, 4] [µg/mL] | solubility [2, 5] [µg/mL] | solubility ([2]; water) [µg/mL] | Time to peak Tmax [3] [h]
25 | 2900 | 58.1 ± 47.7 | 19 ± 12.6 | 40.3 | 27 ± 31.5 | 38.3 ± 36.5 | 2320 ± 1800 | 2.25 ± 2.47 |  |  |  |  |  |  |  | CC1=NN(c2ccc3c(c2)C(C)(C)CC3)C(=O)/C1=N\Nc1cccc(-c2ccc(C(=O)O)o2)c1O.NCCO.NCCO [Example 4, (Z)-5-(3-{N′-[1-(3,3-dimethyl-indan-5-yl)-3-methyl-5-oxo-1,5-dihydro-pyrazol-4-ylidene]-hydrazino}-2-hydroxy-phenyl)-furan-2-carboxylic acid bis-(ethanolamine)] | 24 | 19000 |  | 
32 | < 1 |  |  |  |  |  |  | 2.5 ± 1 | <1 | 9.5 ± 8.3 | 54.3 ± 32.2 | 19.8 ± 16.4 | 31.7 ± 24.6 | 1290 ± 380 |  | CC1=NN(c2ccc3c(c2)C(C)(C)CC3)C(=O)/C1=N\Nc1cccc(-c2ccc(C(=O)O)o2)c1O [Example 4h, (Z)-5-(3-{N′-[1-(3,3-dimethyl-indan-5-yl)-3-methyl-5-oxo-1,5-dihydro-pyrazol-4-ylidene]-hydrazino}-2-hydroxy-phenyl)-furan-2-carboxylic acid] | < 1 |  |  | 
36 |  |  |  |  |  |  |  |  | 3009 (≈ 6370 µM) | 175 ± 41 | 5 ± 1.4 | 45.0 ± 70.3 | 60.4 ± 90.2 | 13000 ± 6500 | <1 | CC1=NN(c2ccc3c(c2)C(C)(C)CC3)C(=O)/C1=N\Nc1cccc(-c2ccc(C(=O)O)o2)c1O [Example 6, (Z)-5-(3-{N′-[1-(3,3-dimethyl-indan-5-yl)-3-methyl-5-oxo-1,5-dihydro-pyrazol-4-ylidene]-hydrazino}-2-hydroxy-phenyl)-furan-2-carboxylic acid bis-(piperazine)] |  |  | 1 (≈ 2.12 µM) | 2.5 ± 1.0
39 |  | 3.41 ± 1.75 | 603 ± 240 | 4 | 9.95 ± 0.6 | 14.8 ± 1 | 39800 ± 18200 | 5 ± 2 |  |  |  |  |  |  |  | CC1=NN(c2ccc3c(c2)CCCC3)C(=O)/C1=N\Nc1cccc(-c2coc(C(=O)O)c2)c1O.NCCO.NCCO [Example 22, (Z)-4-(2-Hydroxy-3-{N′-[3-methyl-5-oxo-1-(5,6,7,8-tetrahydro-naphthal-2-yl)-1,5-dihydro-pyrazol-4-ylidene]-hydrazino}-phenyl)-furan-2-carboxylic acid bis-(ethanolamine)] |  |  |  | 
42 |  | 8.49 ± 2.16 | 151 ± 97 | 11.5 | 9.21 ± 1.57 | 11.8 ± 4.5 | 8730 ± 2580 | 4.25 ± 1.26 |  |  |  |  |  |  |  | CC1=NN(c2ccc3c(c2)CCCC3)C(=O)/C1=N\Nc1cccc(-c2coc(C(=O)O)c2)c1O [Example 22f, (Z)-4-(2-hydroxy-3-{N′-[3-methyl-5-oxo-1-(5,6,7,8-tetrahydro-naphthal-2-yl)-1,5-dihydro-pyrazol-4-ylidene]-hydrazino}-phenyl)-furan-2-carboxylic acid] |  |  |  | 

Structure (SMILES) | EC50 [1] [nM] | solubility ([2]; water, read-out: solubility) [µg/mL] | Vd/F [3] [L/kg] | AUC [3] [µg·h/mL] | CL/F [3] [mL/min/kg] | half-life [3] [h] | MRT [3] [h] | Cmax [3] [ng/mL] | Tmax [3] [h] | solubility ([2]; methanol) [µg/mL] | Area Under Curve AUC [3] [µg·h/mL] | Clearance CL/F [3] [mL/min/kg] | Half-Life t½ [3] [h] | Mean Residence Time MRT [3] [h] | Plasma Conc. Cmax [3] [ng/mL] | solubility ([2]; 0.1% hydrochloric acid) [µg/mL] | solubility [2, 4] [µg/mL] | solubility [2, 5] [µg/mL] | solubility ([2]; water) [µg/mL] | Time to peak Tmax [3] [h]
CC1=NN(c2ccc3c(c2)CCC3)C(=O)/C1=N\Nc1cccc(-c2cccc(C(=O)O)c2)c1O.NCCO.NCCO [Example 1, (Z)-2′-hydroxy-3′-[N′-(1-indan-5-yl-3-methyl-5-oxo-1,5-dihydro-pyrazol-4-ylidene)-hydrazino]-biphenyl-3-carboxylic acid bis-(ethanolamine)] | 150 | 3 | 0.45 ± 0.32 | 501 ± 178 | 1.63 | 5.39 ± 0.94 | 4.96 ± 1.16 | 90100 ± 35300 | 3.25 ± 1.5 |  |  |  |  |  |  |  | < 1 | 1470 |  | 
CC1=NN(c2ccc3c(c2)CCC3)C(=O)/C1=N\Nc1cccc(-c2cccc(C(=O)O)c2)c1O [Example 1j, (Z)-2′-hydroxy-3′-[N′-(1-indan-5-yl-3-methyl-5-carbonyl-1,5-dihydro-pyrazol-4-ylidene)-hydrazino]-biphenyl-3-carboxylic acid] | 200 |  |  |  |  |  |  |  |  | <1 | 131 ± 47 | 0.817 ± 0.583 | 4.21 ± 1.86 | 3.89 ± 1.78 | 29050 ± 11440 |  | < 1 |  | <1 | 4.00 ± 1.41
